Measurements published in PubChem BioAssay (NCI).
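1) Cells in 96-well plates. 2) Compound, 48 h, 5 concentrations. 3) Linear interpolation between surrounding doses. 4) Unreached endpoint = highest concentration. GI50: concentration for 50% inhibition of growth. TGI: concentration producing complete growth inhibition.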

Columns and labels:
Test in all cases: NCI-60 cell line screen, 48 h
HOP-92 NSCLC = tested on: HOP-92 NSCLC
K-562 leukemia = tested on: K-562 leukemia
DMS 273 small cell lung = tested on: DMS 273 small cell lung
DMS 114 small cell lung = tested on: DMS 114 small cell lung
LXFL 529 NSCLC = tested on: LXFL 529 NSCLC
SF-539 CNS = tested on: SF-539 CNS
NCI-H522 lung = tested on: NCI-H522 lung
M19-MEL melanoma = tested on: M19-MEL melanoma
M14 melanoma = tested on: M14 melanoma
NCI-H460 lung = tested on: NCI-H460 lung
A498 renal = tested on: A498 renal
COLO 205 colon = tested on: COLO 205 colon
OVCAR-4 ovarian = tested on: OVCAR-4 ovarian
NCI-H23 lung = tested on: NCI-H23 lung
MALME-3M melanoma = tested on: MALME-3M melanoma
CCRF-CEM leukemia = tested on: CCRF-CEM leukemia
UACC-62 melanoma = tested on: UACC-62 melanoma
NCI-H226 lung = tested on: NCI-H226 lung
SNB-75 CNS = tested on: SNB-75 CNS
SK-MEL-28 melanoma = tested on: SK-MEL-28 melanoma
SN12C renal = tested on: SN12C renal
SF-268 CNS = tested on: SF-268 CNS
RPMI-8226 leukemia = tested on: RPMI-8226 leukemia
SK-OV-3 ovarian = tested on: SK-OV-3 ovarian
786-0 renal = tested on: 786-0 renal
CAKI-1 renal = tested on: CAKI-1 renal
HCT-116 colon = tested on: HCT-116 colon
MOLT-4 leukemia = tested on: MOLT-4 leukemia
DLD-1 colon = tested on: DLD-1 colon
XF 498 CNS = tested on: XF 498 CNS
SK-MEL-2 melanoma = tested on: SK-MEL-2 melanoma
UO-31 renal = tested on: UO-31 renal
SR leukemia = tested on: SR leukemia
IGROV1 ovarian = tested on: IGROV1 ovarian
HL-60(TB) leukemia = tested on: HL-60(TB) leukemia
HOP-62 NSCLC = tested on: HOP-62 NSCLC
HCC-2998 colon = tested on: HCC-2998 colon
SNB-78 CNS = tested on: SNB-78 CNS
EKVX NSCLC = tested on: EKVX NSCLC
A549 NSCLC = tested on: A549 NSCLC
UACC-257 melanoma = tested on: UACC-257 melanoma
OVCAR-3 ovarian = tested on: OVCAR-3 ovarian
T-47D breast = tested on: T-47D breast
SNB-19 CNS = tested on: SNB-19 CNS
OVCAR-8 ovarian = tested on: OVCAR-8 ovarian
HT29 colon = tested on: HT29 colon
BT-549 breast = tested on: BT-549 breast
LOX IMVI melanoma = tested on: LOX IMVI melanoma
SK-MEL-5 melanoma = tested on: SK-MEL-5 melanoma
KM12 colon = tested on: KM12 colon
SW-620 colon = tested on: SW-620 colon
U251 CNS = tested on: U251 CNS
KM20L2 colon = tested on: KM20L2 colon
MDA-MB-435 = tested on: MDA-MB-435
SF-295 CNS = tested on: SF-295 CNS
ACHN renal = tested on: ACHN renal
PC-3 prostate = tested on: PC-3 prostate
TK-10 renal = tested on: TK-10 renal
HCT-15 colon = tested on: HCT-15 colon
DU-145 prostate = tested on: DU-145 prostate
RXF 393 renal = tested on: RXF 393 renal
MDA-MB-231 breast = tested on: MDA-MB-231 breast
MDA-N = tested on: MDA-N
HS 578T breast = tested on: HS 578T breast
OVCAR-5 ovarian = tested on: OVCAR-5 ovarian

## Cc1ncc(CI)c(CI)c1O
HOP-92 NSCLC
  TGI: > 100 µM
K-562 leukemia
  TGI: 31.5 µM
DMS 273 small cell lung
  TGI: 32.1 µM
DMS 114 small cell lung
  TGI: > 100 µM
LXFL 529 NSCLC
  TGI: > 100 µM
SF-539 CNS
  TGI: 43.8 µM
NCI-H522 lung
  TGI: 12.7 µM
M19-MEL melanoma
  TGI: > 100 µM
M14 melanoma
  TGI: > 100 µM
NCI-H460 lung
  TGI: > 100 µM
A498 renal
  TGI: > 100 µM
COLO 205 colon
  TGI: > 100 µM
OVCAR-4 ovarian
  TGI: > 100 µM
NCI-H23 lung
  TGI: 48.2 µM
MALME-3M melanoma
  TGI: 42.5 µM
CCRF-CEM leukemia
  TGI: 23.2 µM
UACC-62 melanoma
  TGI: > 100 µM
NCI-H226 lung
  TGI: 6.1 µM
SNB-75 CNS
  TGI: 41.2 µM
SK-MEL-28 melanoma
  TGI: 44.6 µM
SN12C renal
  TGI: 35.2 µM
SF-268 CNS
  TGI: 54.7 µM
RPMI-8226 leukemia
  TGI: 31.4 µM
SK-OV-3 ovarian
  TGI: > 100 µM
786-0 renal
  TGI: 35.3 µM
CAKI-1 renal
  TGI: > 100 µM
HCT-116 colon
  TGI: 31.4 µM
MOLT-4 leukemia
  TGI: 41.6 µM
DLD-1 colon
  TGI: 55.8 µM
XF 498 CNS
  TGI: 38.4 µM
SK-MEL-2 melanoma
  TGI: 42.4 µM
UO-31 renal
  TGI: 6.28 µM
SR leukemia
  TGI: 36.7 µM
IGROV1 ovarian
  TGI: > 100 µM
HL-60(TB) leukemia
  TGI: 5.29 µM
HOP-62 NSCLC
  TGI: 35.3 µM
HCC-2998 colon
  TGI: 33.3 µM
SNB-78 CNS
  TGI: > 100 µM

## O=C([O-])CC(=O)[O-].[NH-][C@@H]1CCCC[C@H]1[NH-].[Pt+4]
HOP-92 NSCLC
  GI50: > 100 µM
  TGI: > 100 µM
K-562 leukemia
  GI50: 3.66 µM
  TGI: > 100 µM
EKVX NSCLC
  GI50: > 100 µM
  TGI: > 100 µM
A549 NSCLC
  GI50: 11.1 µM
  TGI: > 100 µM
LXFL 529 NSCLC
  GI50: 25.2 µM
  TGI: > 100 µM
SF-539 CNS
  GI50: 46.8 µM
  TGI: > 100 µM
UACC-257 melanoma
  GI50: > 89 µM
  TGI: > 100 µM
OVCAR-3 ovarian
  GI50: 24.9 µM
  TGI: > 100 µM
NCI-H522 lung
  GI50: 18.7 µM
  TGI: > 100 µM
T-47D breast
  GI50: 8.38 µM
  TGI: > 100 µM
M19-MEL melanoma
  GI50: 14.3 µM
  TGI: > 100 µM
M14 melanoma
  GI50: 16.7 µM
  TGI: > 100 µM
SNB-19 CNS
  GI50: 32.1 µM
  TGI: > 100 µM
OVCAR-8 ovarian
  GI50: 24.5 µM
  TGI: > 100 µM
HT29 colon
  GI50: 6.13 µM
  TGI: > 100 µM
NCI-H460 lung
  GI50: 3.17 µM
  TGI: > 100 µM
A498 renal
  GI50: 20.7 µM
  TGI: > 81.5 µM
BT-549 breast
  GI50: 32.8 µM
  TGI: > 100 µM
COLO 205 colon
  GI50: 54 µM
  TGI: > 100 µM
OVCAR-4 ovarian
  GI50: > 33.9 µM
  TGI: > 100 µM
LOX IMVI melanoma
  GI50: 15 µM
  TGI: > 100 µM
NCI-H23 lung
  GI50: 16.9 µM
  TGI: > 97.3 µM
MALME-3M melanoma
  GI50: 6.4 µM
  TGI: > 100 µM
SK-MEL-5 melanoma
  GI50: 16.9 µM
  TGI: > 100 µM
CCRF-CEM leukemia
  GI50: 4.32 µM
  TGI: > 100 µM
UACC-62 melanoma
  GI50: 20.2 µM
  TGI: > 100 µM
KM12 colon
  GI50: 85 µM
  TGI: > 100 µM
NCI-H226 lung
  GI50: 5.9 µM
  TGI: > 80.6 µM
SNB-75 CNS
  GI50: > 35.9 µM
  TGI: > 100 µM
SK-MEL-28 melanoma
  GI50: 35.8 µM
  TGI: > 100 µM
SW-620 colon
  GI50: 2100 nM
  TGI: > 100 µM
U251 CNS
  GI50: 17.4 µM
  TGI: > 83.3 µM
SN12C renal
  GI50: 15 µM
  TGI: > 100 µM
KM20L2 colon
  TGI: > 100 µM
SF-268 CNS
  GI50: 59.1 µM
  TGI: > 100 µM
RPMI-8226 leukemia
  GI50: 1050 nM
  TGI: > 100 µM
MDA-MB-435
  GI50: 15.5 µM
  TGI: > 100 µM
SK-OV-3 ovarian
  GI50: > 100 µM
  TGI: > 100 µM
786-0 renal
  GI50: 13.2 µM
  TGI: > 100 µM
CAKI-1 renal
  GI50: 3.53 µM
  TGI: > 100 µM
SF-295 CNS
  GI50: 39.4 µM
  TGI: > 100 µM
ACHN renal
  GI50: > 35.9 µM
  TGI: > 100 µM
PC-3 prostate
  GI50: 37 µM
  TGI: > 100 µM
TK-10 renal
  GI50: > 100 µM
  TGI: > 100 µM
HCT-116 colon
  GI50: 4.84 µM
  TGI: > 100 µM
MOLT-4 leukemia
  GI50: 1290 nM
  TGI: 61.4 µM
SK-MEL-2 melanoma
  GI50: 59.9 µM
  TGI: > 100 µM
HCT-15 colon
  GI50: 9.61 µM
  TGI: > 100 µM
UO-31 renal
  GI50: 18.9 µM
  TGI: > 100 µM
IGROV1 ovarian
  GI50: 33.5 µM
  TGI: > 100 µM
HL-60(TB) leukemia
  GI50: 6.31 µM
  TGI: > 100 µM
HOP-62 NSCLC
  GI50: > 27.1 µM
  TGI: > 100 µM
HCC-2998 colon
  GI50: 18.9 µM
  TGI: > 100 µM
DU-145 prostate
  GI50: 93 µM
  TGI: > 100 µM
RXF 393 renal
  GI50: > 79 µM
  TGI: > 100 µM
SNB-78 CNS
  GI50: > 100 µM
  TGI: > 100 µM
MDA-MB-231 breast
  GI50: > 100 µM
  TGI: > 100 µM
MDA-N
  GI50: 19.9 µM
  TGI: > 100 µM
HS 578T breast
  GI50: 19.6 µM
  TGI: > 100 µM
OVCAR-5 ovarian
  GI50: > 63.9 µM
  TGI: > 100 µM
